The values that follow come from US6291637A (priority 1999, dated 2001).

Data set [1] relates to cap-dependent translation (CAT RNA). Type of data set: biochemical.
Data set [2] concerns poliovirus IRES-dependent translation (P2CAT RNA). It is filed as biochemical.
The test system of data set [3] is poliovirus 5'-UTR (IRES)-mediated translation. Type of data set: biochemical.

Where no end group is shown, it is not given here.

Take AALEAKICHQIEYYFGDF [LAP]: the “effect on cellular translation” value in the data set with cellular translation was “does not interfere with cellular translation”. Further, the “entry into human cells” value with PV is “appears to freely diffuse into human cells”.
Consider “5' GCGCGGGCAGCGCA 3' (chemistry not given here) [BI-RNA]”, for which, in data set [1], the “inhibition of cap-dependent translation of CAT (pG3CAT/pCAT) RNA” value is recorded as “not cap dependent-translation”. For the same molecule, the “inhibition of poliovirus IRES-mediated translation of P2CAT RNA” value in data set [2] is reported as “specifically inhibiting translation by internal initiation”.

B1: La protein (protein, UniProt P05455 1-408, looked up)
Lupus La protein: MAENGDNEKMAALEAKICHQIEYYFGDFNLPRDKFLKEQIKLDEGWVPLEIMIKFNRLNRLTTDFNVIVEALSKSKAELMEISEDKTKIRRSPSKPLPEVTDEYKNDVKNRSVYIKGFPTDATLDDIKEWLEDKGQVLNIQMRRTLHKAFKGSIFVVFDSIESAKKFVETPGQKYKETDLLILFKDDYFAKKNEERKQNKVEAKLRAKQEQEAKQKLEEDAEMKSLEEKIGCLLKFSGDLDDQTCREDLHILFSNHGEIKWIDFVRGAKEGIILFKEKAKEALGKAKDANNGNLQLRNKEVTWEVLEGEVEKEALKKIIEDQQESLNKWKSKGRRFKGKGKGNKAAQPGSGKGKVQFQGKKTKFASDDEHDEHDENGATGPVKRAREETDKEEPASKQQKTENGAGDQ
Turning to B1, in data set [3], the “effect on viral 5'-UTR-mediated translation” value is on record as “Significant stimulation” and the “reversal of I-RNA-mediated inhibition of translation” value was “reversed”.
